Experimental data published in paper PMC7265429, “Characterization of a new small-molecule inhibitor of HDAC6 in glioblastoma” (Cell Death & Disease, 2020).

Test system: GNS166 cells
Experiment: Microarray whole-transcriptome gene expression analysis
Format: cell-based, human
Method: Whole-transcriptome analysis was performed from 300 ng of RNA using HuGene-2_0-st-v1 expression array (Affymetrix), which covers 48,226 transcripts. Raw data were first checked for quality purposes through the Affymetrix® Expression Console™ Software v1.4.1 and TAC software v4.0. Then, data were normalized using the Robust Multi-array Average (RMA) and analyzed by Limma tool. Probesets with FDR-corrected p-values smaller than 0.05 were selected. Functional enrichment on Gene Ontology (GO) biological processes was performed on a smaller subset of the differentially expressed genes (corrected p-value < 0.001) by means of Broad Institute GSEA. […] The data that support this study have been deposited in NCBI´s Gene Expression Omnibus and are accessible through GEO series accession number GSE143887.

[1] = sheet DMSO-SAHA_DOWN, microarray

Structure (SMILES): O=C(CCCCCCC(=O)Nc1ccccc1)NO [SAHA, Suberoylanilide hydroxamic acid]
- logFC TTC7B (transcript TC1400009967.hg.1) [1]: -1.063
- logFC TTC28 (transcript TC2200008356.hg.1) [1]: -1.091
- logFC TXNDC15 (transcript TC0500008705.hg.1) [1]: -1.511
- logFC USE1 (transcript TC1900007313.hg.1) [1]: -1.0842
- logFC VCAN (transcript TC0500007972.hg.1) [1]: -1.305
- logFC YAP1 (transcript TC1100008904.hg.1) [1]: -1.463
- logFC ZDHHC4 (transcript TC0700006649.hg.1) [1]: -0.9579
- logFC ZNF43 (transcript TC1900010163.hg.1) [1]: -0.8461
- logFC ZNF107 (transcript TC0700013370.hg.1) [1]: -1.056
- logFC ZNF805 (transcript TC1900008988.hg.1) [1]: -0.8747
- logFC geneSymbol NA (transcript 23064083) [1]: -1.061
- logFC geneSymbol NA (transcript 23066345) [1]: -1.581
- logFC geneSymbol NA (transcript 23066351) [1]: -1.258
- logFC geneSymbol NA (transcript 23066370) [1]: -1.256
- logFC geneSymbol NA (transcript 23066378) [1]: -1.258
- logFC geneSymbol NA (transcript 23075414) [1]: -1.568
- logFC geneSymbol NA (transcript 23075613) [1]: -0.9478
- logFC geneSymbol NA (transcript 23075631) [1]: -0.8653
- logFC geneSymbol NA (transcript 23075715) [1]: -0.9535
- logFC geneSymbol NA (transcript 23075786) [1]: -0.9478
- logFC geneSymbol NA (transcript 23075802) [1]: -0.9222
- logFC geneSymbol NA (transcript 23075888) [1]: -0.8842
- logFC geneSymbol NA (transcript 23075961) [1]: -0.9103
- logFC geneSymbol NA (transcript 23076100) [1]: -0.9321
- logFC geneSymbol NA (transcript 23076182) [1]: -0.9773
- logFC geneSymbol NA (transcript 23076263) [1]: -0.9293
- logFC geneSymbol NA (transcript 23076348) [1]: -0.9199
- logFC geneSymbol NA (transcript 23076424) [1]: -0.8654
- logFC geneSymbol NA (transcript 23076493) [1]: -0.9827
- logFC geneSymbol NA (transcript HTA2-pos-3670232_st) [1]: -0.8727
- logFC geneSymbol NA (transcript HTA2-pos-3670240_st) [1]: -1.133
- logFC geneSymbol NA (transcript HTA2-pos-PSR05023592.hg.1) [1]: -0.8946
- logFC geneSymbol NA (transcript HTA2-pos-PSR05035203.hg.1) [1]: -1.027
- logFC geneSymbol NA (transcript HTA2-pos-PSR17008061.hg.1) [1]: -0.9289
- logFC geneSymbol NA (transcript HTA2-pos-PSR17008062.hg.1) [1]: -0.8972
- logFC geneSymbol NA (transcript HTA2-pos-PSR17008080.hg.1) [1]: -0.8914
- logFC geneSymbol NA (transcript HTA2-pos-PSR17008100.hg.1) [1]: -0.9888
- logFC geneSymbol NA (transcript HTA2-pos-PSR17013956.hg.1) [1]: -1.322
- logFC geneSymbol NA (transcript HTA2-pos-PSR19006615.hg.1) [1]: -0.8048
- logFC transcript 23071521 (geneSymbol NA) (transcript 23071521, DMSO vs 5 µM SAHA, upregulated genes): 0.9492
- logFC transcript 23074028 (geneSymbol NA) (transcript 23074028, DMSO vs 5 µM SAHA, upregulated genes): 1.15
- logFC REPS2 (transcript TC0X00006704.hg.1, DMSO vs 5 µM SAHA, upregulated genes): 2.016
- logFC FAM3C2 (transcript TC0X00006789.hg.1, DMSO vs 5 µM SAHA, upregulated genes): 1.058
- logFC TMEM35 (transcript TC0X00007935.hg.1, DMSO vs 5 µM SAHA, upregulated genes): 1.065
- logFC SMIM10 (transcript TC0X00008492.hg.1, DMSO vs 5 µM SAHA, upregulated genes): 1.0804
- logFC CDR1 (transcript TC0X00008596.hg.1, DMSO vs 5 µM SAHA, upregulated genes): 2.1035
- logFC GEMIN8 (transcript TC0X00009107.hg.1, DMSO vs 5 µM SAHA, upregulated genes): 1.085
- logFC TAB3 (transcript TC0X00009339.hg.1, DMSO vs 5 µM SAHA, upregulated genes): 0.8188
- logFC TMEM255A (transcript TC0X00010670.hg.1, DMSO vs 5 µM SAHA, upregulated genes): 1.002
- logFC DCAF6 (transcript TC0100010518.hg.1, DMSO vs 5 µM SAHA, upregulated genes): 0.8028
- logFC LAMC1 (transcript TC0100010863.hg.1, DMSO vs 5 µM SAHA, upregulated genes): 1.035
- logFC PPP2R5A (transcript TC0100011520.hg.1, DMSO vs 5 µM SAHA, upregulated genes): 0.853
- logFC VASH2 (transcript TC0100011552.hg.1, DMSO vs 5 µM SAHA, upregulated genes): 1.211
- logFC FRRS1 (transcript TC0100015049.hg.1, DMSO vs 5 µM SAHA, upregulated genes): 1.197
- logFC PLD5 (transcript TC0100017957.hg.1, DMSO vs 5 µM SAHA, upregulated genes): 1.018
- logFC FPGT-TNNI3K (transcript TC0100018235.hg.1, DMSO vs 5 µM SAHA, upregulated genes): 1.058
- logFC PPP1R21 (transcript TC0200007535.hg.1, DMSO vs 5 µM SAHA, upregulated genes): 1.2457
- logFC ACVR2A (transcript TC0200009596.hg.1, DMSO vs 5 µM SAHA, upregulated genes): 1.001
- logFC ACSL3 (transcript TC0200010907.hg.1, DMSO vs 5 µM SAHA, upregulated genes): 1.082
- logFC PIGF (transcript TC0200012489.hg.1, DMSO vs 5 µM SAHA, upregulated genes): 1.027
- logFC RND3 (transcript TC0200014597.hg.1, DMSO vs 5 µM SAHA, upregulated genes): 0.9455
- logFC ACVR1C (transcript TC0200014694.hg.1, DMSO vs 5 µM SAHA, upregulated genes): 1.493
- logFC CMTM8 (transcript TC0300006961.hg.1, DMSO vs 5 µM SAHA, upregulated genes): 0.9182
- logFC RNF13 (transcript TC0300009147.hg.1, DMSO vs 5 µM SAHA, upregulated genes): 1.125
- logFC RAP2B (transcript TC0300009229.hg.1, DMSO vs 5 µM SAHA, upregulated genes): 0.867
- logFC TIPARP (transcript TC0300009282.hg.1, DMSO vs 5 µM SAHA, upregulated genes): 0.8784
- logFC PPM1L (transcript TC0300009353.hg.1, DMSO vs 5 µM SAHA, upregulated genes): 1.659
- logFC POLR2H (transcript TC0300009706.hg.1, DMSO vs 5 µM SAHA, upregulated genes): 0.9753
- logFC SLC9A9 (transcript TC0300012686.hg.1, DMSO vs 5 µM SAHA, upregulated genes): 2.129
- logFC TNIK (transcript TC0300013108.hg.1, DMSO vs 5 µM SAHA, upregulated genes): 1.27
- logFC EFHB (transcript TC0300013950.hg.1, DMSO vs 5 µM SAHA, upregulated genes): 1.411
- logFC DGKG (transcript TC0300014083.hg.1, DMSO vs 5 µM SAHA, upregulated genes): 2.595
- logFC BMP2K (transcript TC0400007938.hg.1, DMSO vs 5 µM SAHA, upregulated genes): 0.9344
- logFC NPNT (transcript TC0400008331.hg.1, DMSO vs 5 µM SAHA, upregulated genes): 1.698
- logFC HHIP (transcript TC0400008892.hg.1, DMSO vs 5 µM SAHA, upregulated genes): 1.6713
- logFC KIAA0922 (transcript TC0400009038.hg.1, DMSO vs 5 µM SAHA, upregulated genes): 1.219
- logFC ETFDH (transcript TC0400009132.hg.1, DMSO vs 5 µM SAHA, upregulated genes): 0.9226
- logFC CLCN3 (transcript TC0400009284.hg.1, DMSO vs 5 µM SAHA, upregulated genes): 0.8527
- logFC FAM175A (transcript TC0400011208.hg.1, DMSO vs 5 µM SAHA, upregulated genes): 1.331
- logFC PAPSS1 (transcript TC0400011538.hg.1, DMSO vs 5 µM SAHA, upregulated genes): 0.9468
- logFC ETNPPL (transcript TC0400011563.hg.1, DMSO vs 5 µM SAHA, upregulated genes): 1.856
- logFC PDE5A (transcript TC0400011712.hg.1, DMSO vs 5 µM SAHA, upregulated genes): 1.355
- logFC RAPGEF2 (transcript TC0400012856.hg.1, DMSO vs 5 µM SAHA, upregulated genes): 1.1527
- logFC FAM105A (transcript TC0500006816.hg.1, DMSO vs 5 µM SAHA, upregulated genes): 1.369
- logFC SLC36A1 (transcript TC0500009123.hg.1, DMSO vs 5 µM SAHA, upregulated genes): 0.9929
- logFC ARL15 (transcript TC0500010731.hg.1, DMSO vs 5 µM SAHA, upregulated genes): 2.128
- logFC GLRX (transcript TC0500011497.hg.1, DMSO vs 5 µM SAHA, upregulated genes): 0.987
- logFC NME5 (transcript TC0500012160.hg.1, DMSO vs 5 µM SAHA, upregulated genes): 1.606
- logFC PCDH1 (transcript TC0500012294.hg.1, DMSO vs 5 µM SAHA, upregulated genes): 1.432
